# Results published in PMC12004706, “In vitro inhibition of voltage-dependent sodium currents by the antifungal drug amorolfine” (The Journal of Biological Chemistry, 2025).
# pKi: −log10 of the molar value.
# Biological target: T1, Nav1.7 (Homo sapiens, UniProt Q15858)
# T1 construct: gene SCN9A; human Nav1.7 channels stably transfected in Expi293F cells
# Test: automated whole-cell patch clamp (Qube-384); inverse apparent IC50 vs holding potential fit with four-state binding model
# Type: cell-based
# T1 sequence (Q15858 whole entry): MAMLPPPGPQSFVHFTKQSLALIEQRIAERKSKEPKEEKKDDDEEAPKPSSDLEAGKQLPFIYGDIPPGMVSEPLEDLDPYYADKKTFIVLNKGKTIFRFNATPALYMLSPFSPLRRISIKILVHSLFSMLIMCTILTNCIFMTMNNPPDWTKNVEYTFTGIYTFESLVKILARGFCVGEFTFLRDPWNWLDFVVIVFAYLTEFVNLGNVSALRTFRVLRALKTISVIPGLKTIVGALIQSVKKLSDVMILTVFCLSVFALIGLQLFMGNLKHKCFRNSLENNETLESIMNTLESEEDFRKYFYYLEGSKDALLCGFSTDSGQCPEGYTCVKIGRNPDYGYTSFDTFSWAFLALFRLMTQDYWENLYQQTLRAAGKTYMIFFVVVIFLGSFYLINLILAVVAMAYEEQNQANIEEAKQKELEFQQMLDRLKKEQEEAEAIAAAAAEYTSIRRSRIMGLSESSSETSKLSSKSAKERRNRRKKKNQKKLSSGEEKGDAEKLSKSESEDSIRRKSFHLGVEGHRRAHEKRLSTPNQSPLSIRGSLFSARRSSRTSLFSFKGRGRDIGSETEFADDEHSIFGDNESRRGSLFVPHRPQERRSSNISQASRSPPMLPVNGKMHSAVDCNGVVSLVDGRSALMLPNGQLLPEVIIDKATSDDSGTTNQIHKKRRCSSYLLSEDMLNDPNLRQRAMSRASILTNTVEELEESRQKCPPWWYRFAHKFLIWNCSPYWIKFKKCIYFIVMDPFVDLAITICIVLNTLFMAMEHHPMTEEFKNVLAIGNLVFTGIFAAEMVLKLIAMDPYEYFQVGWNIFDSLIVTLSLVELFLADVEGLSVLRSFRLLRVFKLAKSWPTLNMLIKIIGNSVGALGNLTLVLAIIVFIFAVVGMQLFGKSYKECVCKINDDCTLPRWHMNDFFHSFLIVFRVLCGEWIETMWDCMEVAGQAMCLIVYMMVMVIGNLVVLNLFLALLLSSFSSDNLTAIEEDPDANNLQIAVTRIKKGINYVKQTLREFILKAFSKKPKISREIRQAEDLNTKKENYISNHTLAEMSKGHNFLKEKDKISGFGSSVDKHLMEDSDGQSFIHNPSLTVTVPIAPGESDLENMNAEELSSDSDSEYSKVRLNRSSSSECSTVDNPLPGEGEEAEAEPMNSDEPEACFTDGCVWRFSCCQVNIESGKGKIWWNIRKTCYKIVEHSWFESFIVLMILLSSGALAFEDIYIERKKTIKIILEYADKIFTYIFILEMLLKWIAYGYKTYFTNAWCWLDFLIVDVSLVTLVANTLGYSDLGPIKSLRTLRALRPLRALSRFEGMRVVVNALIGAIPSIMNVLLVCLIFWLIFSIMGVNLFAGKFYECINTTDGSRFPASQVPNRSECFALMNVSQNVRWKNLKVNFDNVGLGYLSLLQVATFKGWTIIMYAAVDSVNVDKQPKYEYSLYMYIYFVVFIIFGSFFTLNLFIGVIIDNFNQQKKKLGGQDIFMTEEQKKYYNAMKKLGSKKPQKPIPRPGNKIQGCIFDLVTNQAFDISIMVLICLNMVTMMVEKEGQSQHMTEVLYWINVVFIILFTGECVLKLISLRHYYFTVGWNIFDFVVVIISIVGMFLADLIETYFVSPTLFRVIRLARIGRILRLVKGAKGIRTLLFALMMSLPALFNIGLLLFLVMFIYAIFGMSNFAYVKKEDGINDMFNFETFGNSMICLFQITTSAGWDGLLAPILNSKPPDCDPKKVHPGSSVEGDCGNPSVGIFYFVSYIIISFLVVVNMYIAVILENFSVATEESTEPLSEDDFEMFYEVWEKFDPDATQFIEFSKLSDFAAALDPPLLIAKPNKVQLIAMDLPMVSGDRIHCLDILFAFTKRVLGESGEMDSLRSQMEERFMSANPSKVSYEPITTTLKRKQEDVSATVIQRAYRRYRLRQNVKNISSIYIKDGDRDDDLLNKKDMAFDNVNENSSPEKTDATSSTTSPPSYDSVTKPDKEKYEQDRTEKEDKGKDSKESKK
smiles,measurement,value
"CCC(C)(C)c1ccc(CC(C)CN2C[C@@H](C)O[C@@H](C)C2)cc1 (stereo partly shown) [AMF, amorolfine]",pKi,5.44
